Data as given in BindingDB's records for doi:10.1111/cbdd.12588 (Tehran University of Medical Sciences, 2015).

Tests used:
[1] = molecular target: Acetylcholinesterase (Electrophorus electricus, UniProt O42275); assay: Cholinesterase Inhibition Assay; conditions: pH 8
Protocol: (§1) The target compounds were dissolved in a mixture of 1 mL DMSO and 9 mL methanol and diluted in 0.1 M KH2PO4/K2HPO4 buffer (pH 8.0) to obtain final concentrations.For each compound, five different concentrations were tested to obtain the range of 20-80% enzyme inhibition. The assay medium was composed of 3 mL of phosphatebuffer (0.1 M, pH 8.0), 100 µL of DTNB (0.01 M), 100 µL of enzyme solution (AChE or BuChE, 2.5 unit/mL), and 50 µL of test compound.

[2] = molecular target: Carboxylic ester hydrolase (Equus caballus, UniProt Q9N1N9); assay: Cholinesterase Inhibition Assay; conditions: pH 8
Protocol: as §1

Chain of Carboxylic ester hydrolase (Q9N1N9 whole entry): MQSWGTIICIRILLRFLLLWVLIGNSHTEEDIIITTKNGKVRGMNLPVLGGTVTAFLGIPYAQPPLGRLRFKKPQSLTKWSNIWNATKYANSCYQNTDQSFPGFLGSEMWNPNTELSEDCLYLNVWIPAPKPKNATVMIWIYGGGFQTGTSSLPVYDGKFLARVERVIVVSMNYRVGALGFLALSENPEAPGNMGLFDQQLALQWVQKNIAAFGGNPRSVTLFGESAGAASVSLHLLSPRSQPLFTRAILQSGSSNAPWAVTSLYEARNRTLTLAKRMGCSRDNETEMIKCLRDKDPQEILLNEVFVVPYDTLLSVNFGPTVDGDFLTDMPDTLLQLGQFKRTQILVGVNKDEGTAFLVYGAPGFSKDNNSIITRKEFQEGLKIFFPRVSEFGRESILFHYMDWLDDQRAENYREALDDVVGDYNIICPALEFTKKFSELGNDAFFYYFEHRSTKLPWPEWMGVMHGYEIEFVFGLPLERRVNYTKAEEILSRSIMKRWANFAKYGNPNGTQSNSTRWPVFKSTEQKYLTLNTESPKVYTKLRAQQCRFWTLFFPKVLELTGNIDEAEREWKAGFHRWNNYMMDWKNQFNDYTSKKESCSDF
Chain of Acetylcholinesterase (O42275 whole entry): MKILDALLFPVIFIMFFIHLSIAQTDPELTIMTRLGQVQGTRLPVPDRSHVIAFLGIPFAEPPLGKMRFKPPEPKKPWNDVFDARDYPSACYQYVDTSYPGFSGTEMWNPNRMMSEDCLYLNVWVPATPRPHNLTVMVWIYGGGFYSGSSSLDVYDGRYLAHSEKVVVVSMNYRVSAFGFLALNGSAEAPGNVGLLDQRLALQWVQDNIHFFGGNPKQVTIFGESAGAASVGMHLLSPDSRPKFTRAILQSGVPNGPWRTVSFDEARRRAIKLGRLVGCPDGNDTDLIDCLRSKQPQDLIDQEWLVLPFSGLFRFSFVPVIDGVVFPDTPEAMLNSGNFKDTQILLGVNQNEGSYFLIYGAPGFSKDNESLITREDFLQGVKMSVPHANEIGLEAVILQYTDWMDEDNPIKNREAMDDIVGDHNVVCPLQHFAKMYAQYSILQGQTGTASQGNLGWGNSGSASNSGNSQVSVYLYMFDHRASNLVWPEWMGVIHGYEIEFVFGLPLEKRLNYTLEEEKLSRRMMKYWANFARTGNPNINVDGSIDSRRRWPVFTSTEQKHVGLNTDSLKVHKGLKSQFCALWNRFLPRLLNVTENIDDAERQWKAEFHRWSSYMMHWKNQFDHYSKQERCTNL

`O=C(COc1cc(=O)oc2ccccc12)OCc1cn(Cc2ccccc2[N+](=O)[O-])nn1` [(1-(2-Nitrobenzyl)-1H-1,2,3-triazol-4-yl)methyl 2-(2-oxo-2H-chromen-4-yloxy)acetate (8n)] showed an IC50 [1] of 0.53 µM and an IC50 [2] greater than 50 µM.

In the case of `Cc1ccccc1Cn1cc(COC(=O)COc2cc(=O)oc3ccccc23)nn1` [(1-(2-Methylbenzyl)-1H-1,2,3-triazol-4-yl)methyl 2-(2-oxo-2H-chromen-4-yloxy)acetate (8f)], the IC50 [1] is reported as 1.79 µM and the IC50 [2] is reported as greater than 50 µM.

`O=C(COc1cc(=O)oc2ccccc12)OCc1cn(Cc2ccccc2F)nn1` [(1-(2-Fluorobenzyl)-1H-1,2,3-triazol-4-yl)methyl 2-(2-oxo-2H-chromen-4-yloxy)acetate (8h)] showed an IC50 [1] of 5.7 µM and an IC50 [2] greater than 50 µM.

In the case of `O=C(COc1cc(=O)oc2ccccc12)OCc1cn(Cc2ccc(F)cc2)nn1` [(1-(4-Fluorobenzyl)-1H-1,2,3-triazol-4-yl)methyl 2-(2-oxo-2H-chromen-4-yloxy)acetate (8j)], the IC50 [1] is reported as 2.54 µM and the IC50 [2] is reported as greater than 50 µM.

In the case of `O=C(COc1cc(=O)oc2ccccc12)OCc1cn(Cc2cccc(Cl)c2)nn1` [(1-(3-Chlorobenzyl)-1H-1,2,3-triazol-4-yl)methyl 2-((2-oxo-2H-chromen-4-yl)oxy)acetate (8l)], the IC50 [1] is reported as 0.34 µM and the IC50 [2] is reported as greater than 50 µM.

`O=C(COc1cc(=O)oc2ccccc12)OCc1cn(Cc2ccccc2)nn1` [(1-Benzyl-1H-1,2,3-triazol-4-yl)methyl 2-((2-oxo-2H-chromen-4-yl)oxy)acetate (8p)] was tested, and the IC50 [1] was 15.8 µM and the IC50 [2] was greater than 50 µM.

With `O=C(COc1cc(=O)oc2ccccc12)OCc1cn(Cc2ccc(Br)cc2)nn1` [(1-(4-Bromobenzyl)-1H-1,2,3-triazol-4-yl)methyl 2-(2-oxo-2H-chromen-4-yloxy)acetate (8c)] the IC50 [1] was 87.9 µM and the IC50 [2] was greater than 50 µM.

`COc1cccc(Cn2cc(COC(=O)COc3cc(=O)oc4ccccc34)nn2)c1` [(1-(3-Methoxybenzyl)-1H-1,2,3-triazol-4-yl)methyl 2-(2-oxo-2H-chromen-4-yloxy)acetate (8d)] showed an IC50 [1] of 7 µM and an IC50 [2] greater than 50 µM.

Work on `O=C(COc1cc(=O)oc2ccccc12)OCc1cn(Cc2ccc([N+](=O)[O-])cc2)nn1` [(1-(4-Nitrobenzyl)-1H-1,2,3-triazol-4-yl)methyl 2-(2-oxo-2H-chromen-4-yloxy)acetate (8o)] yielded an IC50 [1] of 137 µM and an IC50 [2] greater than 50 µM.

With `O=C(COc1cc(=O)oc2ccccc12)OCc1cn(Cc2cccc(F)c2)nn1` [(1-(3-Fluorobenzyl)-1H-1,2,3-triazol-4-yl)methyl 2-(2-oxo-2H-chromen-4-yloxy)acetate (8i)] the IC50 [1] was 1.64 µM and the IC50 [2] was greater than 50 µM.

`O=C(COc1cc(=O)oc2ccccc12)OCc1cn(Cc2ccc(Cl)cc2)nn1` [(1-(4-Chlorobenzyl)-1H-1,2,3-triazol-4-yl)methyl 2-(2-oxo-2H-chromen-4-yloxy)acetate (8m)] was tested, and the IC50 [1] was 13 µM and the IC50 [2] was greater than 50 µM.

`Cc1ccc(Cn2cc(COC(=O)COc3cc(=O)oc4ccccc34)nn2)cc1` [(1-(4-Methylbenzyl)-1H-1,2,3-triazol-4-yl)methyl 2-(2-oxo-2H-chromen-4-yloxy)acetate (8g)] showed an IC50 [1] of 90 µM and an IC50 [2] greater than 50 µM.

`O=C(COc1cc(=O)oc2ccccc12)OCc1cn(Cc2ccccc2Cl)nn1` [(1-(2-Chlorobenzyl)-1H-1,2,3-triazol-4-yl)methyl 2-(2-oxo-2H-chromen-4-yloxy)acetate (8k)] was tested, and the IC50 [1] was 0.18 µM and the IC50 [2] was greater than 50 µM.

`O=C(COc1cc(=O)oc2ccccc12)OCc1cn(Cc2ccccc2Br)nn1` [(1-(2-Bromobenzyl)-1H-1,2,3-triazol-4-yl)methyl 2-(2-oxo-2H-chromen-4-yloxy)acetate (8a)] was tested, and the IC50 [1] was 2.14 µM and the IC50 [2] was 43 µM.

With `O=C(COc1cc(=O)oc2ccccc12)OCc1cn(Cc2cccc(Br)c2)nn1` [(1-(3-Bromobenzyl)-1H-1,2,3-triazol-4-yl)methyl 2-(2-oxo-2H-chromen-4-yloxy)acetate (8b)] the IC50 [1] was 1.79 µM and the IC50 [2] was greater than 50 µM.

`COc1ccc(Cn2cc(COC(=O)COc3cc(=O)oc4ccccc34)nn2)cc1` [(1-(4-Methoxybenzyl)-1H-1,2,3-triazol-4-yl)methyl 2-(2-oxo-2H-chromen-4-yloxy)acetate (8e)] gave an IC50 [1] of 104 µM and an IC50 [2] greater than 50 µM.
